Measurements: patent EP0641569A1, “ANTIPRURITIC” (ONO PHARMACEUTICAL CO., LTD., priority 1992, dated 1993)

How the values were obtained:
[1] = Acute toxicity in mice; conditions: Jcl-ICR, mouse, in vivo, read-out: LD₅₀
Protocol: (§1) Compound A was orally or subcutaneously administered to each ten male and female 6-weeks aged Jcl-ICR mice and Jcl-SD rats, respectively per group. Two groups of Compound A (1000 and 2000 mg/kg) were used by suspending into 0.5% carboxymethyl cellulose (CMC) aqueous solution at the concentration of 100 mg/ml.

[2] = tested on: patients in hemodialysis; assay: Treatment for pruritus cutanea in hemodialysis (improvement score of itching and rash); type: in vivo, human; conditions: for improvement in itching: four patients in hemodialysis with severe itching, no effect with other agents, hydrate
Protocol: 8-[p-(4-phenylbutoxy)benzoyl]amino-2-(tetrazol-5-yl)-4-oxo-4H-1-benzopyran·1/2 hydrate (abbreviated as "Compound A" hereafter) were administered at the dose of 225 mg or 450 mg per day to four patients in hemodialysis (dialyzed for 3 to 11 years) who have severe itching and show no effect with other agents [no effect even with antihistamine, azerastin (anti-allergy agent already on the market) and steroid ointment]. The evaluation was carried out by improvement score of subjective symptom according to "The Standard of degree of Itching" and of rash (judged by slide).

[3] = Acute toxicity in rats; conditions: Jcl-SD, rat, in vivo, read-out: LD₅₀
Protocol: as §1

[4] = 225 mg or 450 mg per day, four patients in hemodialysis

SMILES: O=C(Nc1cccc2c(=O)cc(-c3nnn[nH]3)oc12)c1ccc(OCCCCc2ccccc2)cc1 [Compound A, 8-[p-(4-phenylbutoxy)benzoyl]amino-2-(tetrazol-5-yl)-4-oxo-4H-1-benzopyran·1/2 hydrate]
- LD50 ([1]; po, orally, female): > 2000 mg/kg
- LD50 ([1]; po, orally, male): > 2000 mg/kg
- LD50 ([1]; sc, subcutaneously, female): > 2000 mg/kg
- LD50 ([1]; sc, subcutaneously, male): > 2000 mg/kg
- side effect [2, 4]: no side effect
- subjective symptom and objective symptom (rash), daytime and nighttime [2, 4]: Improvement was shown
- improvement in itching ([2]; 225 mg or 450 mg per day): became better
- improvement in itching ([2]; 225 mg or 450 mg per day, listed as 8-[p-(4-phenylbutoxy)benzoyl]amino-2-(tetrazol-5-yl)-4-oxo-4H-1-benzopyran semih): Remarkable improvement
- LD50 ([3]; po, orally, female): > 2000 mg/kg
- LD50 ([3]; po, orally, male): > 2000 mg/kg
- LD50 ([3]; sc, subcutaneously, female): > 2000 mg/kg
- LD50 ([3]; sc, subcutaneously, male): > 2000 mg/kg

SMILES: CN1CCCC(n2nc(Cc3ccc(Cl)cc3)c3ccccc3c2=O)CC1 (stereo not shown) [azerastin, reference compound]
- effect on itching ([2]; earlier treatment of the same four patients with other agents): no effect
